Test results: patent publication EP4748839A1 (CSPC Zhongqi Pharmaceutical Technology (Shijiazhuang) Co., …, priority 2023, dated 2025)

Key:
[1] = biological target: hERG channel (Homo sapiens, UniProt Q12809); experiment: hERG test, automated patch-clamp in CHO cells stably expressing hERG; type: cell-based; conditions: hERG current inhibition, CHO-hERG-DUO cells, 0.37-30 µM, n = 2
Procedure: The potential inhibitory effects of the test compounds on the hERG channel were assessed using an automated patch-clamp system. In this study, the CHO cell line stably expressing the hERG gene was used, with Cisapride as the positive control.
The CHO-hERG-DUO cell line stably expressing the hERG channel was purchased from B'SYS GmbH. The cells were cultured in F12 (HAM) medium supplemented with 10%FBS, 100 U/mL penicillin-streptomycin, 100 µg/mL hygromycin, and 100 µg/mL G418. The cells were passaged three times per week and maintained at about 80% confluence.
The test compounds were dissolved in DMSO to prepare stock solutions at a final concentration of 10 mM; the stock solution was then serially diluted with DMSO in a 1: 3 ratio (3.33 mM, 1.11 mM and 0.37 mM); and the final concentrations of the test compounds were 30 µM, 10 µM, 3.33 µM, 1.11 µM and 0.37 µM.
A baseline was established using the blank vehicle. […] The hERG current was recorded for no less than 5 minutes to reach a steady state, and then 5 scans were captured. […] The experiments were performed in duplicate (n = 2) and hERG current inhibition by five concentrations of the compound were measured to determine the IC50.
The percent current inhibition was calculated using the following equation. […]
The IC50 was calculated using Graphpad Prism 8.0.

[2] = In vivo pharmacokinetic assay in mice; conditions: mouse; ICR mice (female), oral gavage 10 mg/kg, plasma
Procedure: Experimental animals: ICR mice (female, 22-25 g), purchased from Beijing Vital River Laboratory Animal Technology Co., Ltd.
Experimental procedure: ICR mice were administered the test compounds by gavage. Whole blood samples of the mice were collected at 15 min, 0.5 h, 1 h, 2 h, 4 h, 8 h and 24 h after administration and centrifuged to isolate plasma. The compound concentration was measured by LC-MS/MS, and pharmacokinetic parameters such as Area Under the Concentration-Time Curve (AUC) were calculated using Winnolin software.
Oral gavage dose: 10 mg/kg.
Measurement method: Quantitative analysis was carried out in the LC/MS/MS system after pretreatment with a protein precipitation method.

[3] = biological target: T1, GLP-1R (Homo sapiens, UniProt P43220); experiment: GLP-1R agonistic effect in GLP1R-cAmp-Luc cells (luciferase reporter; titled 'Enzymatic assay'); type: cell-based; conditions: 4 hours incubation, firefly luciferin signal
T1 construct: expressed in transfected cells
How it was run: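 GLP1R-cAmp-Luc cells were exposed for 4 h at 37 °C to seven 5-fold dilutions starting at 125 nM final. Luciferin (150 µg/mL working) was then added for 30 min at room temperature, and the luciferase signal was read. EC50 came from the concentration–response curve.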

T1 sequence (P43220 24-463, species assumed): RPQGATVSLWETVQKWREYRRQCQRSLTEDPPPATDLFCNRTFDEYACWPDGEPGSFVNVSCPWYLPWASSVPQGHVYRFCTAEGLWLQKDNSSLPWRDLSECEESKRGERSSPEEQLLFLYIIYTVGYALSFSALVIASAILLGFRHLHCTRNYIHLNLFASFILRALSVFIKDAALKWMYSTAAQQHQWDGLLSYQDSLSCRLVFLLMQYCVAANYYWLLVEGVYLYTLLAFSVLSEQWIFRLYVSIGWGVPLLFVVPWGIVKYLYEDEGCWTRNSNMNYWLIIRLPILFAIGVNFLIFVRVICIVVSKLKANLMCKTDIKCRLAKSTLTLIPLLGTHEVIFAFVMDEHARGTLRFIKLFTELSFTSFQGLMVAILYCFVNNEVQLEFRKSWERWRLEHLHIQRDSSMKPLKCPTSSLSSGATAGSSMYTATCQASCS
Chain of hERG channel (Q12809 whole entry): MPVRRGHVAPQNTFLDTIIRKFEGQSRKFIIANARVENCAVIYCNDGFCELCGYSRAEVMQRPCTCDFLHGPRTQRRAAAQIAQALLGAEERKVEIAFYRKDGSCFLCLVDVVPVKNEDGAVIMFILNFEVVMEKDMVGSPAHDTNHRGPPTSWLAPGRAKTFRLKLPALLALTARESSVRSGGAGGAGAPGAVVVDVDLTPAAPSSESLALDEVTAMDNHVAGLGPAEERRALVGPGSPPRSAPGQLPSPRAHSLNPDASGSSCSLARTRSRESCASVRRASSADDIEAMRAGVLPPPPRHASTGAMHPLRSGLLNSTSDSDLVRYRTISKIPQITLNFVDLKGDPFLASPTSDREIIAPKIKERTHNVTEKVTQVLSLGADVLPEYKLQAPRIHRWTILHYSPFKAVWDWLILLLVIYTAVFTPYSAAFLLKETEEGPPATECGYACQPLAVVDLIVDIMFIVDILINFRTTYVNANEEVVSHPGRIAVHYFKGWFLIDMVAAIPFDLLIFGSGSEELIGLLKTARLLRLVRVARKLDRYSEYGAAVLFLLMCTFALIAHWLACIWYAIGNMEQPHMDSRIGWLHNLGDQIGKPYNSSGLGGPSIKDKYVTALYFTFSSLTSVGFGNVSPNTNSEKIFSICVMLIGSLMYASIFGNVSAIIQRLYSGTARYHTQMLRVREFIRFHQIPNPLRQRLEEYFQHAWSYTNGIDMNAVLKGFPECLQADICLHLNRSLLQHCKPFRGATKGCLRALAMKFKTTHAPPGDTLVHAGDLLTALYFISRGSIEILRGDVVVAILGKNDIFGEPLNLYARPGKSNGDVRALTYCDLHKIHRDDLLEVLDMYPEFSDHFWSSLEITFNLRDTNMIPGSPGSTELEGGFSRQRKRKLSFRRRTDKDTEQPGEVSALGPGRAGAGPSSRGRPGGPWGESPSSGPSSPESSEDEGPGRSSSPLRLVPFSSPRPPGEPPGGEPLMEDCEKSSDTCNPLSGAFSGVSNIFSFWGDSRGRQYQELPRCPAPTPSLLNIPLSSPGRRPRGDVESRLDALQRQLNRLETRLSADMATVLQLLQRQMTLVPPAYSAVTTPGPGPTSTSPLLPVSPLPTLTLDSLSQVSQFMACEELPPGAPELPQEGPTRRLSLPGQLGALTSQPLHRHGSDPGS

AUC(0-t) [2]: 12200 ng·h/mL
EC50 [3]: ≤ 1 nM
Compound: COc1cc(C(=O)O)cc2c1nc(Cc1c(F)cc(-c3cccc(OCc4ccc(Cl)cc4OC(F)F)n3)c3c1CCO3)n2CC1(CF)CC1 [Compound 87, 2-((7-(6-((4-Chloro-2-(difluoromethoxy)benzyl)oxy)pyridin-2-yl)-5-fluoro-2,3-dihydrobenzofuran-4-yl)methyl)-1-((1-(fluoromethyl)cyclopropyl)methyl)-4-methoxy-1H-benzo[d]imidazole-6-carboxylic acid]
IC50 [1]: > 30 µM
